{
  "source": "paper PMC4667731",
  "about": "(Journal of medicinal chemistry, 2015)",
  "key": {"M. tuberculosis H37Rv": {"tested_on": "M. tuberculosis H37Rv", "assay": "M. tuberculosis H37Rv MIC assay under iron-deficient conditions", "format": "cell-based", "conditions": "Mycobacterium tuberculosis, pH 6.6"}, "[1]": {"assay": "Pharmacokinetics in Sprague-Dawley rats", "conditions": "rat; for detection in serum samples after oral dose of prodrug: p.o. 25 mg/kg"}, "[2]": {"assay": "Serum stability studies of prodrugs", "format": "in vitro ADME", "conditions": "Figure S8"}, "[3]": {"assay": "Estimated pKa of the acyl-sulfonyl linker", "format": "physicochemical"}, "[4]": {"tested_on": "UDP-gluguronosyl transferase (UDPGT)", "assay": "Glucuronidation study, rat liver microsomes", "conditions": "UDPGA"}, "[5]": {"tested_on": "UDP-gluguronosyl transferase (UDPGT)", "assay": "Glucuronidation study, human liver microsomes", "conditions": "UDPGA"}, "Aqueous solubility": {"assay": "Aqueous solubility", "format": "physicochemical"}, "[6]": {"assay": "Stability under acidic and alkaline conditions", "format": "physicochemical", "conditions": "24 h at 37 °C"}, "in vitro": {"assay": "in vitro", "conditions": "human, Caco-2, […]"}, "TB infection": {"tested_on": "TB infection", "conditions": "dosed intraperitoneally; cited from earlier work"}},
  "note": "“Also recorded” adds a separate entry of the source.",
  "data": [
    {"compound": "CCN(CC)CC.O=C(NS(=O)(=O)NC[C@H]1O[C@@H](n2cnc3c(NC4CC4)ncnc32)[C@H](O)[C@@H]1O)c1ccccc1O", "note": "[Compound 6, N^6-Cyclopropyl-5′-deoxy-5′-N-[N-(2-hydroxybenzoyl)sulfamoyl]aminoadenosine triethylammonium salt]", "values": [
      {"measurement": "MIC", "setting": "M. tuberculosis H37Rv", "value": 0.06, "unit": "µg/mL"}
    ]},
    {"compound": "5′-O-[N-(2-Acetoxybenzoyl)sulfamoyl]-2′, 3′-O-di-acetyladenosine [Compound 3]", "values": [
      {"measurement": "detection in serum samples after oral dose of prodrug", "setting": "[1]; 25 mg/kg", "value": "neither of the parent compounds was detected; also recorded: only a negligible amount of 1 could be detected"},
      {"measurement": "serum stability (acetate cleavage)", "setting": "[2]", "value": "rapidly cleaved"}
    ]},
    {"compound": "CCN(CC)CC.Nc1ccc(C(=O)NS(=O)(=O)NC[C@H]2O[C@@H](n3cnc4c(N)ncnc43)[C@H](O)[C@@H]2O)c(O)c1", "note": "[Compound 5, 5′-N-[N-(4-Amino-2-hydroxybenzoyl)sulfamoyl]amino-5′-deoxyadenosine]", "values": [
      {"measurement": "pKa", "setting": "[3]", "value": "~6"},
      {"measurement": "MIC", "setting": "M. tuberculosis H37Rv", "value": 1.81, "unit": "µg/mL"}
    ]},
    {"compound": "CCN(CC)CC.Nc1nc(-c2ccccc2)nc2c1ncn2[C@@H]1O[C@H](CNS(=O)(=O)NC(=O)c2ccccc2O)[C@@H](O)[C@H]1F", "note": "[Compound 9, 2′, 5′-Dideoxy-2′-fluoro-5′-N-[N-(2-hydroxybenzoyl)sulfamoyl]amino-2-phenyladenosine triethylammonium salt]", "values": [
      {"measurement": "MIC", "setting": "M. tuberculosis H37Rv", "value": 1, "unit": "µg/mL"}
    ]},
    {"compound": "CCN(CC)CC.Nc1ncnc2c1ncn2[C@@H]1O[C@H](CNS(=O)(=O)NC(=O)c2ccccc2O)[C@@H](O)[C@H]1F", "note": "[Compound 8, 5′-N-[N-(2-Hydroxybenzoyl)sulfamoyl]amino-2′, 5′-dideoxy-2′-fluoroadenosine triethylammonium salt]", "values": [
      {"measurement": "MIC", "setting": "M. tuberculosis H37Rv", "value": 0.11, "unit": "µg/mL"}
    ]},
    {"compound": "CCN(CC)CC.Nc1ncnc2c1ncn2[C@@H]1O[C@H](CNS(=O)(=O)NC(=O)c2ccccc2O)C[C@H]1F", "note": "[Compound 10, 2′, 3′, 5′-Trideoxy-5′-N-[N-(2-hydroxybenzoyl)sulfamoyl]amino-2′-fluoroadenosine triethylammonium salt]", "values": [
      {"measurement": "MIC", "setting": "M. tuberculosis H37Rv", "value": 0.43, "unit": "µg/mL"}
    ]},
    {"compound": "COc1c(C)c2c(c(O)c1C/C=C(\\C)CCC(=O)O)C(=O)OC2", "note": "[MPA, Mycophenolic Acid]", "values": [
      {"measurement": "glucuronidated at 60 min", "setting": "[4]", "value": 30, "unit": "%"},
      {"measurement": "glucuronidated at 60 min", "setting": "[5]", "value": 85, "unit": "%"}
    ]},
    {"compound": "CCN(CC)CC.O=C(NS(=O)(=O)NC[C@H]1O[C@@H](n2cnc3c(NC4CC4)nc(-c4ccccc4)nc32)[C@H](O)[C@@H]1O)c1ccccc1O", "note": "[Compound 7, N^6-Cyclopropyl-5′-deoxy-5′-N-[N-(2-hydroxybenzoyl)sulfamoyl]amino-2-phenyladenosine triethylammonium salt]", "values": [
      {"measurement": "MIC", "setting": "M. tuberculosis H37Rv", "value": 4.27, "unit": "µg/mL"},
      {"measurement": "aqueous solubility", "setting": "Aqueous solubility", "value": "poor aqueous solubility"}
    ]},
    {"compound": "CCN(CC)CC.Nc1ncnc2c1ncn2[C@@H]1O[C@H](CNS(=O)(=O)NC(=O)c2ccccc2O)[C@@H](O)[C@H]1O", "note": "[Compound 4, 5′-N-[N-(2-Hydroxybenzoyl)sulfamoyl]amino-5′ -deoxyadenosine triethylammonium salt]", "values": [
      {"measurement": "pKa", "setting": "[3]", "value": "~5"},
      {"measurement": "Cmax", "setting": "[1]; female, Sprague-Dawley, in vivo, po, 25 mg/kg", "value": 1400, "unit": "nM"},
      {"measurement": "MIC", "setting": "M. tuberculosis H37Rv", "value": 0.11, "unit": "µg/mL"}
    ]},
    {"compound": "CCN(CC)CC.Nc1ncnc2c1ncn2[C@@H]1O[C@H](COS(=O)(=O)NC(=O)c2ccccc2O)[C@@H](O)[C@H]1O", "note": "[Compound 1, 5′-O-[N-(salicyl)sulfamoyl]adenosine]", "values": [
      {"measurement": "pKa", "setting": "[3]", "value": "~3"},
      {"measurement": "degradation", "setting": "[6]; acidic (pH 1)", "value": "less than 5%"},
      {"measurement": "degradation", "setting": "[6]; alkaline (pH 12)", "value": "less than 5%"},
      {"measurement": "MIC", "setting": "M. tuberculosis H37Rv", "value": 0.2, "unit": "µg/mL"},
      {"measurement": "Papp A→B", "setting": "in vitro", "value": 1.2, "unit": "×10⁻⁶ cm/s"},
      {"measurement": "efficacy in acute murine TB infection model", "setting": "TB infection", "value": "effective"}
    ]},
    {"compound": "2′, 3′ -O-di-Acetyl-5′ -O-[N-(2-hydroxybenzoyl)sulfamoyl]adenosine [Compound 2]", "values": [
      {"measurement": "detection in serum samples after oral dose of prodrug", "setting": "[1]", "value": "neither of the parent compounds was detected"},
      {"measurement": "serum stability (acetate cleavage)", "setting": "[2]", "value": "slowly hydrolyzed"}
    ]}
  ]
}
